From patent US10857180B2, “Pharmaceutical composition for improving health, cure abnormalities and degenerative disease, achieve anti-aging effect of therapy and therapeutic effect on mammals and method thereof” (priority 2014, dated 2020)

Legend:
[1] = tested on: A-549 cell line (human lung cancer); test: Type A cell transformation of A-549 cells, effect of solution storage; format: cell-based
Description: Alluding to the above, the effect of accumulation of antitumor properties of light isotopes containing materials on A-549 tumor cell line will now be discussed. When working with the preparations under study, it was noted that the functional activity of certain doses of the components increased over time after preparation of the solution and its subsequent storage at t+4° C. […] The preparation was stored at the temperature of […].

[2] = tested on: A-549 cell line; test: Cytogenetic analysis (micronucleus test) of A-549 cells; format: cell-based, human; conditions: for increase of cells with protrusions: A-549
Description: (§1) Advanced Micronucleus Test was used to assess the cytogenetic characteristics of cells after their exposure to the action of the test group of components.
(§2) Cytogenetic analysis was carried out after 48 hours of exposure of the cells to the action of the components. For cytogenetic analysis, the cells were incubated in hypotonic solution KCl (0.54%) (Reahim, Ukraine) for 40 minutes at +37° C. Then they were fixed with a mixture of methyl alcohol (Reahim, Ukraine) and acetic acid (Himlaborreaktiv, Ukraine) (3:1) with replacing the fixative three times. All fixed cell suspensions were applied on cold wet glasses, dried and stained with Giemsa stain (Sigma, Germany). The cytogenetic preparations were analyzed using a binocular microscope Sari Zeiss, AxioStarPlus (Germany) with magnification of x 1000. The following quantitative characteristics and stages of cell division were analyzed on the preparations: mitoses, cells with premature chromosome condensation (PCC), cells with micronuclei (CMN), apoptotic cells and cells with nuclear protrusions (protrusions) which were calculated for 1000 cells and expressed in per mille (%).

[3] = tested on: MCF-7 cell line; test: Cytogenetic analysis (micronucleus test) of MCF-7 cells; format: cell-based, human
Description: as §1, §2

SMILES	transformation of initial tumor cells to cells of type A ([1]; ^39K 0.4 mg/ml, in both cases) [%]	transformation of initial tumor cells to cells of type A ([1]; ^39K 10 mg/ml)	number of cells of type A after 20 days of storage vs first day ([1]; ^39K sulphate form 2 mg/ml) [fold]	increase of cells with protrusions [2] [fold]	cells of type A ([1]; ^64Zn sulphate, after 28 days)	level of cells with micronuclei [3]	level of nuclear abnormalities vs control ([2]; ^64Zn 20 mcg/ml, 48 hours)	level of nuclear abnormalities vs dose of 10 mcg/ml ([2]; ^64Zn 20 mcg/ml, 48 hours)
[39K+].[Cl-] [^39K]	100	no transformational effect was found	2	15	–	–	–	–
O=S(=O)([O-])[O-].[64Zn+2] [^64Zn]	–	–	–	~10	About 50%	more than a two-fold increase	fifty times as high as the baseline	triple increase
